Results: patent publication US12168803B2, “Compositions and methods for screening and diagnosis of prostate cancer” (DANA-FARBER CANCER INSTITUTE, INC., priority 2015, dated 2024)

Experiments:
LAPC4 cells [1] = assay: Cell growth / viability (Trypan Blue exclusion) of LAPC4 cells; type: cell-based, human
Excerpt: (§1) To interrogate the differential sensitivity to docetaxel of prostate cancer cells, two prostate cancer cell lines, LNCaP and LAPC4, were compared.
(§2) LNCaP-Abl cell line was provided by Zoran Culig (Innsbruck Medical University). LNCaP-C42 cell line was obtained from ViroMed Laboratories (Minneapolis). LNCaP-104R2 cell line was provided by Shutsung Liao (University of Chicago), and LAPC-4 cell line was provided by Charles Sawyers (Memorial Sloan Kettering Cancer Center). These cells were maintained with 10% fetal bovine serum (FBS) (LNCaP, LNCaP-C42, LMCaP-AI, VCAP, 22RV1, LAPC4, PC3, and DU145) or 10% charcoal-stripped serum (CSS) (LNCaP-Abl, and LNCaP-104R2) at 37 c in 5% CO2.

LNCaP cells = assay: Cell growth / viability (Trypan Blue exclusion) of LNCaP cells; type: cell-based, human
Excerpt: as §1, §2

LAPC4 cells [2] = conditions: LAPC4, upon docetaxel treatment
Excerpt: as §1

[3] = system: docetaxel-resistant prostate cancer; conditions: docetaxel-resistant patients; cited from earlier work
[4] = system: metastatic castration-resistant prostate cancer (mCRPC); conditions: first-line; cited from earlier work
[5] = system: metastatic hormone sensitive prostate cancer (mHSPC); conditions: docetaxel given at the time of starting ADT for mHSPC; cited from earlier work

SMILES: C[C@]12CCC(=O)C[C@@H]1CC[C@@H]1[C@@H]2CC[C@]2(C)[C@@H](O)CC[C@@H]12 [DHT, dihydro-testosterone]
- impact of DHT treatment on docetaxel sensitivity (LAPC4 cells [1]; LAPC4): dose-dependent
- effect of DHT on viability in docetaxel (LAPC4 cells [1]; LAPC4, 0.01 nM to 0.1 mM docetaxel, Trypan Blue exclusion): markedly increased
- effect of 10 nM DHT on cell growth in the presence of docetaxel (LAPC4 cells [1]; LAPC4, 10 nM docetaxel): restoration of cell growth
- effect of DHT on viability against docetaxel (LNCaP cells; LNCaP, 0.01 nM to 0.1 mM docetaxel, Trypan Blue exclusion): not significantly affected
- effect of DHT on PARP cleavage (LAPC4 cells [2]): specifically reduced

SMILES: CO[C@H]1C(=O)[C@]2(C)[C@@H](OC)C[C@H]3OC[C@@]3(OC(C)=O)[C@H]2[C@H](OC(=O)c2ccccc2)[C@]2(O)C[C@H](OC(=O)[C@H](O)[C@@H](NC(=O)OC(C)(C)C)c3ccccc3)C(C)=C1C2(C)C [cabazitaxel]
- improvement of median OS over mitoxantrone [3]: 2.4 months
- median OS [3]: 15.1 months

SMILES: CC(=O)O[C@@]12CO[C@@H]1C[C@H](O)[C@@]1(C)C(=O)[C@H](O)C3=C(C)[C@@H](OC(=O)[C@H](O)[C@@H](NC(=O)OC(C)(C)C)c4ccccc4)C[C@@](O)([C@@H](OC(=O)c4ccccc4)[C@H]21)C3(C)C [docetaxel]
- IC20 (LAPC4 cells [1]; Homo sapiens, LAPC4 cells, growth, read-out: IC20 concentration): 5 nM
- sensitivity of cells to docetaxel (LAPC4 cells [1]; LAPC4, 10 nM docetaxel, absence of DHT): sensitive
- IC20 (LNCaP cells; Homo sapiens, LNCaP cells, growth, read-out: IC20 concentration): 0.5 nM
- sensitivity of cells to docetaxel (LNCaP cells; LNCaP, 10 nM docetaxel, absence of DHT): sensitive
- prolongation of median overall survival (OS) over mitoxantrone [4]: ~2 month
- OS [5]: 57 months
- improvement of OS [5]: 13 months

SMILES: CNC(=O)c1ccc(N2C(=S)N(c3ccc(C#N)c(C(F)(F)F)c3)C(=O)C2(C)C)cc1F [enzalutamide]
- effect on viability of cells treated with docetaxel in DHT supplemented media (LAPC4 cells [1]; LAPC4): substantially reduced
- effect on docetaxel sensitivity in the presence of DHT (LAPC4 cells [1]; LAPC4, 10 nM docetaxel, DHT): resensitized the cells to docetaxel

SMILES: O=C1c2c(O)ccc(O)c2C(=O)c2c(NCCNCCO)ccc(NCCNCCO)c21 [mitoxantrone]
- median OS [3]: 12.7 months
